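Test compounds were applied to cells in 96-well plates for 48 hours at 5 doses. GI50: concentration for 50% inhibition of growth. TGI is the concentration that stops growth completely.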
Key:
Assay in all cases: DTP human tumour cell line panel, 48 h
SK-MEL-5 melanoma = system: SK-MEL-5 melanoma
LOX IMVI melanoma = system: LOX IMVI melanoma
RXF 393 renal = system: RXF 393 renal
NCI-H522 lung = system: NCI-H522 lung
KM12 colon = system: KM12 colon
OVCAR-8 ovarian = system: OVCAR-8 ovarian
HCT-116 colon = system: HCT-116 colon
HCT-15 colon = system: HCT-15 colon
M14 melanoma = system: M14 melanoma
K-562 leukemia = system: K-562 leukemia
OVCAR-4 ovarian = system: OVCAR-4 ovarian
TK-10 renal = system: TK-10 renal
MOLT-4 leukemia = system: MOLT-4 leukemia
NCI-H23 lung = system: NCI-H23 lung
HOP-92 NSCLC = system: HOP-92 NSCLC
RPMI-8226 leukemia = system: RPMI-8226 leukemia
BT-549 breast = system: BT-549 breast
CAKI-1 renal = system: CAKI-1 renal
NCI/ADR-RES ovarian = system: NCI/ADR-RES ovarian
T-47D breast = system: T-47D breast
OVCAR-5 ovarian = system: OVCAR-5 ovarian
U251 CNS = system: U251 CNS
SF-268 CNS = system: SF-268 CNS
HCC-2998 colon = system: HCC-2998 colon
NCI-H460 lung = system: NCI-H460 lung
UACC-257 melanoma = system: UACC-257 melanoma
HT29 colon = system: HT29 colon
MDA-MB-231 breast = system: MDA-MB-231 breast
MCF7 breast = system: MCF7 breast
SW-620 colon = system: SW-620 colon
MDA-MB-435 = system: MDA-MB-435
SK-OV-3 ovarian = system: SK-OV-3 ovarian
SN12C renal = system: SN12C renal
PC-3 prostate = system: PC-3 prostate
IGROV1 ovarian = system: IGROV1 ovarian
DU-145 prostate = system: DU-145 prostate
A498 renal = system: A498 renal
UACC-62 melanoma = system: UACC-62 melanoma
SF-539 CNS = system: SF-539 CNS
ACHN renal = system: ACHN renal
NCI-H226 lung = system: NCI-H226 lung
SNB-19 CNS = system: SNB-19 CNS
SF-295 CNS = system: SF-295 CNS
CCRF-CEM leukemia = system: CCRF-CEM leukemia
HOP-62 NSCLC = system: HOP-62 NSCLC
A549 NSCLC = system: A549 NSCLC
COLO 205 colon = system: COLO 205 colon
SK-MEL-2 melanoma = system: SK-MEL-2 melanoma
OVCAR-3 ovarian = system: OVCAR-3 ovarian
HL-60(TB) leukemia = system: HL-60(TB) leukemia
UO-31 renal = system: UO-31 renal
MALME-3M melanoma = system: MALME-3M melanoma
SNB-75 CNS = system: SNB-75 CNS
SK-MEL-28 melanoma = system: SK-MEL-28 melanoma
HS 578T breast = system: HS 578T breast
786-0 renal = system: 786-0 renal

With `c1ccc(-c2nc(N3CCOCC3)c3c4c(sc3n2)CCCCCC4)nc1` the GI50 (SK-MEL-5 melanoma) was 1.99 µM, the TGI (SK-MEL-5 melanoma) was 9.45 µM and the GI50 (LOX IMVI melanoma) was 5.24 µM. The TGI (LOX IMVI melanoma) was 20.9 µM, the GI50 (RXF 393 renal) was 8.38 µM and the TGI (RXF 393 renal) was 25.5 µM. The GI50 (NCI-H522 lung) was 5.85 µM, the TGI (NCI-H522 lung) was 20.2 µM and the GI50 (KM12 colon) was 4.28 µM. For the same compound, the TGI (KM12 colon) was 16.1 µM, the GI50 (OVCAR-8 ovarian) was 5.08 µM and the TGI (OVCAR-8 ovarian) was 30.5 µM. For the same compound, the GI50 (HCT-116 colon) was 3.69 µM, the TGI (HCT-116 colon) was 15.3 µM and the GI50 (HCT-15 colon) was 3.43 µM. The TGI (HCT-15 colon) was 18.6 µM, the GI50 (M14 melanoma) was 4.17 µM and the TGI (M14 melanoma) was 16.5 µM. It also gave a GI50 (K-562 leukemia) of 3.47 µM, a TGI (K-562 leukemia) of 23.7 µM and a GI50 (OVCAR-4 ovarian) of 4.85 µM. For the same compound, the TGI (OVCAR-4 ovarian) was 80.3 µM, the GI50 (TK-10 renal) was 9.28 µM and the TGI (TK-10 renal) was 25.5 µM. For the same compound, the GI50 (MOLT-4 leukemia) was 3.77 µM, the TGI (MOLT-4 leukemia) was 17 µM and the GI50 (NCI-H23 lung) was 5.99 µM. The TGI (NCI-H23 lung) was 26.5 µM, the GI50 (HOP-92 NSCLC) was 0.622 µM and the TGI (HOP-92 NSCLC) was 5.05 µM. For the same compound, the GI50 (RPMI-8226 leukemia) was 2.12 µM, the TGI (RPMI-8226 leukemia) was 9.67 µM and the GI50 (BT-549 breast) was 4.38 µM. It also gave a TGI (BT-549 breast) of 16.7 µM, a GI50 (CAKI-1 renal) of 2.29 µM and a TGI (CAKI-1 renal) of 16.1 µM. The GI50 (NCI/ADR-RES ovarian) was 0.836 µM, the TGI (NCI/ADR-RES ovarian) was 18.2 µM and the GI50 (T-47D breast) was 4.46 µM. The TGI (T-47D breast) was 22.7 µM, the GI50 (OVCAR-5 ovarian) was 10.3 µM and the TGI (OVCAR-5 ovarian) was 26.5 µM. For the same compound, the GI50 (U251 CNS) was 4.38 µM, the TGI (U251 CNS) was 17 µM and the GI50 (SF-268 CNS) was 8.82 µM. It also gave a TGI (SF-268 CNS) of 22.6 µM, a GI50 (HCC-2998 colon) of 6.99 µM and a TGI (HCC-2998 colon) of 19.8 µM. It also gave a GI50 (NCI-H460 lung) of 3.68 µM, a TGI (NCI-H460 lung) of 16 µM and a GI50 (UACC-257 melanoma) of 10.9 µM. It also gave a TGI (UACC-257 melanoma) of 23.2 µM, a GI50 (HT29 colon) of 6.05 µM and a TGI (HT29 colon) of 22.7 µM. For the same compound, the GI50 (MDA-MB-231 breast) was 7.43 µM, the TGI (MDA-MB-231 breast) was 25.9 µM and the GI50 (MCF7 breast) was 3.04 µM. The TGI (MCF7 breast) was 12.8 µM, the GI50 (SW-620 colon) was 8.87 µM and the TGI (SW-620 colon) was 21.9 µM. It also gave a GI50 (MDA-MB-435) of 4.82 µM, a TGI (MDA-MB-435) of 17.7 µM and a GI50 (SK-OV-3 ovarian) of 9.25 µM. The TGI (SK-OV-3 ovarian) was 22.5 µM, the GI50 (SN12C renal) was 5 µM and the TGI (SN12C renal) was 29.4 µM. It also gave a GI50 (PC-3 prostate) of 2.69 µM, a TGI (PC-3 prostate) of 11.8 µM and a GI50 (IGROV1 ovarian) of 3.16 µM. For the same compound, the TGI (IGROV1 ovarian) was 9.95 µM, the GI50 (DU-145 prostate) was 6.93 µM and the TGI (DU-145 prostate) was 19.6 µM. For the same compound, the GI50 (A498 renal) was 1.65 µM, the TGI (A498 renal) was 8.63 µM and the GI50 (UACC-62 melanoma) was 3.44 µM. It also gave a TGI (UACC-62 melanoma) of 14.3 µM, a GI50 (SF-539 CNS) of 13 µM and a TGI (SF-539 CNS) of 26.7 µM. The GI50 (ACHN renal) was 4.49 µM, the TGI (ACHN renal) was 16.6 µM and the GI50 (NCI-H226 lung) was 5 µM. It also gave a TGI (NCI-H226 lung) of 24 µM, a GI50 (SNB-19 CNS) of 8.36 µM and a TGI (SNB-19 CNS) of 21.6 µM. For the same compound, the GI50 (SF-295 CNS) was 3.39 µM, the TGI (SF-295 CNS) was 15.8 µM and the GI50 (CCRF-CEM leukemia) was 3.59 µM. The TGI (CCRF-CEM leukemia) was 18.9 µM, the GI50 (HOP-62 NSCLC) was 9.53 µM and the TGI (HOP-62 NSCLC) was 24.6 µM. For the same compound, the GI50 (A549 NSCLC) was 3.57 µM, the TGI (A549 NSCLC) was 15.9 µM and the GI50 (COLO 205 colon) was 9.4 µM. It also gave a TGI (COLO 205 colon) of 22.3 µM, a GI50 (SK-MEL-2 melanoma) of 7.9 µM and a TGI (SK-MEL-2 melanoma) of 21.7 µM. The GI50 (OVCAR-3 ovarian) was 4.6 µM, the TGI (OVCAR-3 ovarian) was 16.2 µM and the GI50 (HL-60(TB) leukemia) was 4.49 µM. It also gave a TGI (HL-60(TB) leukemia) of 22.8 µM, a GI50 (UO-31 renal) of 1.17 µM and a TGI (UO-31 renal) of 10.3 µM. The GI50 (MALME-3M melanoma) was 3.32 µM, the TGI (MALME-3M melanoma) was 14.9 µM and the GI50 (SNB-75 CNS) was 7.1 µM. The TGI (SNB-75 CNS) was 20.8 µM, the GI50 (SK-MEL-28 melanoma) was 11 µM and the TGI (SK-MEL-28 melanoma) was 23.2 µM. The GI50 (HS 578T breast) was 3.37 µM, the TGI (HS 578T breast) was 42.3 µM and the GI50 (786-0 renal) was 11.7 µM. For the same compound, the TGI (786-0 renal) was 32.8 µM.

From PubChem BioAssay (NCI)
